# From paper PMC4216214 (Journal of Medicinal Chemistry, 2014)
# Assays:
# rNTS1 receptor = rNTS1 receptor (Rattus norvegicus, UniProt P20789); assay: Calcium mobilization assay for NTS1 receptor; assay type: cell-based; details: for activity at NTS1: NTS1 FLIPR calcium assay
# rNTS2 receptor [1] = biological target: T1, rNTS2 receptor (Rattus norvegicus, UniProt Q63384); assay: Calcium mobilization assay for NTS2 receptor; assay type: cell-based; details: calcium mobilization relative to 5b
# T1 sequence (Q63384 1-416): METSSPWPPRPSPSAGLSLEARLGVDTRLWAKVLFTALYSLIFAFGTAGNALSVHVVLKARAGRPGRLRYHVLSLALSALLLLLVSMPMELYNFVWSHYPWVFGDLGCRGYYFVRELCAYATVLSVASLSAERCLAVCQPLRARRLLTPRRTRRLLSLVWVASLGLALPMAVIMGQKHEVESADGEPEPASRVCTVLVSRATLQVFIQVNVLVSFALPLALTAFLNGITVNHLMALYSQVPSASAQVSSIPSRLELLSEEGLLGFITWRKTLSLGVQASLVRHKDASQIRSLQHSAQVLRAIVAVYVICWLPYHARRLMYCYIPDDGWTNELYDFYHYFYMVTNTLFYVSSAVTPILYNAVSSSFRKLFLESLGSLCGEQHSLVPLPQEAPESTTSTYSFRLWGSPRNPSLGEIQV
# rNTS2 receptor [2] = biological target: T1, rNTS2 receptor; assay: Competitive [125I]NT whole-cell binding assay, CHO-k1 cells overexpressing rNTS2
# Chain of rNTS1 receptor (P20789 whole entry): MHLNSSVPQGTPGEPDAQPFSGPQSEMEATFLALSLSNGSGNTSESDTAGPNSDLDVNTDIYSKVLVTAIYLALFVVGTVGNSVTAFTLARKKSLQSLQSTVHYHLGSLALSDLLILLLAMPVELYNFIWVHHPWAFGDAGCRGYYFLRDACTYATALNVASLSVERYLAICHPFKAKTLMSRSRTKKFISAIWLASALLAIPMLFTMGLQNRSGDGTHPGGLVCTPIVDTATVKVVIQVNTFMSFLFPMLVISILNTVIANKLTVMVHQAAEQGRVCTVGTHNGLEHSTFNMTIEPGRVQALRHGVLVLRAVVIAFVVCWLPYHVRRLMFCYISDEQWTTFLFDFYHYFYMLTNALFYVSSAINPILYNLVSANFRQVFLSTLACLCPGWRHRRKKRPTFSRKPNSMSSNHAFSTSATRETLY
Structure (SMILES),Kb (rNTS1 receptor),NTS2 Emax (FLIPR assay) (rNTS2 receptor [1]),activity at NTS1 (rNTS1 receptor),Ki (rNTS2 receptor [2])
COc1cccc(OC)c1-c1cc(C(=O)NC2(C(=O)O)C3CC4CC(C3)CC2C4)nn1-c1ccnc2cc(Cl)ccc12 (stereo not drawn) [Compound 5a],4.7 ± 0.8 nM,100 % 5b,,
COc1cccc(OC)c1-c1cc(C(=O)NC2(C(=O)O)C3CC4CC(C3)CC2C4)nn1-c1ccc(C(=O)N(C)CCCN(C)C)cc1C(C)C (stereo not drawn) [Compound 5b],1.5 ± 0.6 nM,,,
"C[C@@H]1CN([C@H]2CC[C@](C#N)(c3ccc(F)cc3)CC2)CC[C@]1(C(=O)O)c1ccccc1 [Compound 6, levocabastine]",,16 % 5b,no activity at NTS1,
"COc1ccccc1-c1cc(C(=O)NC2(C(=O)O)CCCCC2)nn1-c1ccc(F)cc1 [Compound 7b, 1-({[1-(4-Fluorophenyl)-5-(2-methoxyphenyl)-1H-pyrazol-3-yl]carbonyl}amino)cyclohexanecarboxylic Acid]",,7±2 % 5b,neither calcium nor binding activity at NTS1,
"COc1cccc(OC)c1-c1cc(C(=O)NC2C3CC4CC(C3)CC2C4)nn1-c1ccnc2cc(Cl)ccc12 (stereo not drawn) [Compound 13, 1-(7-Chloroquinolin-4-yl)-5-(2,6-dimethoxyphenyl)-N-tricyclo[3.3.1.13,7]dec-2-yl-1H-pyrazole-3-carboxamide]",,,inactive,> 11000 nM
